Assay results published in ChEMBL document CHEMBL6087405, “Discovery and optimization of anthraquinone derivatives containing substituted bisbenzyloxy groups as a novel scaffold damaged endoplasmic reticulum and against hepatocellular carcinoma cells” (Bioorg Med Chem, 2024).
Where a name gives a salt, the structure may show the parent alone. Peptide text beside a SMILES is read from it. * marks the point of attachment. Cbz = O=C(OCc1ccccc1)*

Columns and labels:
Huh-7 [1] = assay: Antiproliferative activity against human Huh-7 cells measured after 48 hrs by MTT assay; format: functional, cell-based; details: Huh-7, 48 h
MDA-MB-231 = assay: Antiproliferative activity against human MDA-MB-231 cells measured after 48 hrs by MTT assay; format: functional, cell-based; details: MDA-MB-231, 48 h
A549 = assay: Antiproliferative activity against human A549 cells measured after 48 hrs by MTT assay; format: functional, cell-based; details: A549, 48 h
Huh-7 [2] = assay: Induction of apoptosis in human Huh-7 cells assessed as necrotic cells at 20 uM measured after 48 hrs by Annexin V-PE staining based flow cytometry analysis (reference value: 3.37%); format: functional
Huh-7 [3] = assay: Induction of apoptosis in human Huh-7 cells assessed as late apoptotic cells at 20 uM measured after 48 hrs by Annexin V-PE staining based flow cytometry analysis (reference value: 2.06%); format: functional
Huh-7 [4] = assay: Induction of apoptosis in human Huh-7 cells assessed as early apoptotic cells at 20 uM measured after 48 hrs by Annexin V-PE staining based flow cytometry analysis (reference value: 0.88%); format: functional
Huh-7 [5] = assay: Induction of apoptosis in human Huh-7 cells assessed as viable cells at 20 uM measured after 48 hrs by Annexin V-PE staining based flow cytometry analysis (reference value: 93.69%); format: functional; details: read-out: Activity

Row | IC50 (Huh-7 [1]) [µM] | IC50 (MDA-MB-231) [µM] | IC50 (A549) [µM] | SMILES | Activity (Huh-7 [2]) [%] | Activity (Huh-7 [3]) [%] | Activity (Huh-7 [4]) [%] | viability at 20 µM (Huh-7 [5]) [%]
1 | 40.4 | 2.24 | > 100 | O=C(NCCNCCO)c1cc(OCc2ccc(Cl)cc2)c2c(c1)C(=O)c1cccc(OCc3ccc(Cl)cc3)c1C2=O | – | – | – | –
2 | 9.24 | 18.5 | 17 | COc1ccc(COc2cccc3c2C(=O)c2c(OCc4ccc(OC)cc4)cc(C(=O)NCCOCCO)cc2C3=O)cc1 | – | – | – | –
3 | 36 | 5.73 | > 100 | O=C(NCCCCCCO)c1cc(OCc2ccc(Cl)cc2)c2c(c1)C(=O)c1cccc(OCc3ccc(Cl)cc3)c1C2=O | – | – | – | –
4 | 4.83 | 2.36 | 7.81 | Cc1ccc(COc2cccc3c2C(=O)c2c(OCc4ccc(C)cc4)cc(C(=O)NCCCCCCO)cc2C3=O)cc1 | – | – | – | –
5 | 1.13 | 0.97 | 3.49 | COc1ccc(COc2cccc3c2C(=O)c2c(OCc4ccc(OC)cc4)cc(C(=O)NCCCCCCO)cc2C3=O)cc1 | – | – | – | –
6 | 0.34 | 0.86 | 5.04 | COc1ccc(COc2cccc3c2C(=O)c2c(OCc4ccc(OC)cc4)cc(C(=O)NCCCCO)cc2C3=O)cc1 | – | – | – | –
7 | 4.79 | 3.46 | 21.1 | O=C(NCCO)c1cc(OCc2ccc(Cl)cc2)c2c(c1)C(=O)c1cccc(OCc3ccc(Cl)cc3)c1C2=O | – | – | – | –
8 | 14.9 | 6.14 | > 100 | Cc1ccc(COc2cccc3c2C(=O)c2c(OCc4ccc(C)cc4)cc(C(=O)NCCOCCO)cc2C3=O)cc1 | – | – | – | –
9 | > 100 | > 100 | > 100 | O=C(O)c1cc(O)c2c(c1)C(=O)c1cccc(O)c1C2=O [RHEIN] | – | – | – | –
10 | 1.98 | 1.27 | 5.66 | O=C(NCCNCCO)c1cc(OCc2ccccc2)c2c(c1)C(=O)c1cccc(OCc3ccccc3)c1C2=O | – | – | – | –
11 | 8.87 | 2.82 | 62.5 | O=C(NCCCCCCO)c1cc(OCc2ccccc2)c2c(c1)C(=O)c1cccc(OCc3ccccc3)c1C2=O | – | – | – | –
12 | 1.98 | 1.29 | 3.36 | Cc1ccc(COc2cccc3c2C(=O)c2c(OCc4ccc(C)cc4)cc(C(=O)NCCCCO)cc2C3=O)cc1 | – | – | – | –
13 | 2.71 | 2.45 | 4.68 | COc1ccc(COc2cccc3c2C(=O)c2c(OCc4ccc(OC)cc4)cc(C(=O)NCCO)cc2C3=O)cc1 | – | – | – | –
14 | 64.4 | 113 | > 100 | O=C(NCCOCCO)c1cc(OCc2ccccc2)c2c(c1)C(=O)c1cccc(OCc3ccccc3)c1C2=O | – | – | – | –
15 | 1.96 | 0.91 | 4.76 | Cc1ccc(COc2cccc3c2C(=O)c2c(OCc4ccc(C)cc4)cc(C(=O)NCCNCCO)cc2C3=O)cc1 | – | – | – | –

More lines, now with the values behind:

Row | SMILES | IC50 (Huh-7 [1]) [µM] | IC50 (MDA-MB-231) [µM] | IC50 (A549) [µM] | Activity (Huh-7 [2]) [%] | Activity (Huh-7 [3]) [%] | Activity (Huh-7 [4]) [%] | viability at 20 µM (Huh-7 [5]) [%]
16 | COc1ccc(COc2cccc3c2C(=O)c2c(OCc4ccc(OC)cc4)cc(C(=O)NCCCO)cc2C3=O)cc1 | 1.69 | 1.94 | 3.55 | – | – | – | –
17 | Cc1ccc(COc2cccc3c2C(=O)c2c(OCc4ccc(C)cc4)cc(C(=O)NCCCO)cc2C3=O)cc1 | 3.75 | 1.15 | 5.79 | – | – | – | –
18 | O=C(NCCCO)c1cc(OCc2ccc(Cl)cc2)c2c(c1)C(=O)c1cccc(OCc3ccc(Cl)cc3)c1C2=O | 5.87 | 6.36 | > 100 | – | – | – | –
19 | Cc1ccc(COc2cccc3c2C(=O)c2c(OCc4ccc(C)cc4)cc(C(=O)NCCCCCO)cc2C3=O)cc1 | 5.08 | 2.48 | 12.3 | – | – | – | –
20 | O=C(NCCCCO)c1cc(OCc2ccc(Cl)cc2)c2c(c1)C(=O)c1cccc(OCc3ccc(Cl)cc3)c1C2=O | 20.9 | 17.5 | > 100 | – | – | – | –
21 | COc1cccc2c1C(=O)c1c(O)c3c(c(O)c1C2=O)C[C@@](O)(C(=O)CO)C[C@@H]3O[C@H]1C[C@H](N)[C@H](O)[C@H](C)O1 [DOXORUBICIN HYDROCHLORIDE] | – | 3.14 | – | – | – | – | –
22 | COc1ccc(COc2cccc3c2C(=O)c2c(OCc4ccc(OC)cc4)cc(C(=O)NCCCCCO)cc2C3=O)cc1 | 4.14 | 2.84 | 5 | – | – | – | –
23 | CC(C)[C@H](NC(=O)OCc1ccccc1)C(=O)N[C@@H](C)C(=O)N[C@@H](CC(=O)O)C(=O)O (Cbz-Val-Ala-Asp-OH) | – | – | – | 5.83 | 2.37 | 0.72 | 91.1
24 | O=C(NCCCCCO)c1cc(OCc2ccc(Cl)cc2)c2c(c1)C(=O)c1cccc(OCc3ccc(Cl)cc3)c1C2=O | 51 | 16 | > 100 | – | – | – | –
25 | O=C(NCCOCCO)c1cc(OCc2ccc(Cl)cc2)c2c(c1)C(=O)c1cccc(OCc3ccc(Cl)cc3)c1C2=O | 50.1 | 7.1 | > 100 | – | – | – | –
26 | CNC(=O)c1cc(Oc2ccc(NC(=O)Nc3ccc(Cl)c(C(F)(F)F)c3)cc2)ccn1 [SORAFENIB] | 6.53 | – | – | – | – | – | –
27 | Cc1ccc(COc2cccc3c2C(=O)c2c(OCc4ccc(C)cc4)cc(C(=O)NCCO)cc2C3=O)cc1 | 4.37 | 2.81 | 13.1 | – | – | – | –
